In patent US20180104232A1, “METHODS FOR DETERMINING PROGNOSIS FOR BREAST CANCER PATIENTS” (The University of Chicago, priority 2015, published 2018):

Columns and labels:
human TNBC BM1 cells = assay: Relative CCL5 mRNA in BM1 cells treated with JQ1; type: cell-based; conditions: 300 nM JQ1, GAPDH loading control
Experimental: (§1) FIG. 21: Relative levels of HMGA2 (first bar of each set) and CCL5 (second bar of each set) are shown for the human triple-negative BM1 cell line (top) and the mouse basal-like breast cancer M6C cell line (bottom) treated with the bromodomain inhibitor JQ1, known to block HMGA2 activity. Relative levels of mRNA were calculated using the formula RQ=2-^˜˜CT with GAPDH as the loading control*0.05>p>0.01 ***0.001>p.
(§2) To overcome resistance to Maraviroc and increased CCL5 levels, the inventors are treating the tumor cells with JQ1, a bromodomain inhibitor which regulates HMGA2. HMGA2 is an upstream regulator of CCL5. Additionally, both genes expression levels are included in our prognostic signature. […] We plan to in the future test whether JQ1 in conjunction with Maraviroc are able to lead to a reduction in metastasis in a mouse model.

[1] = system: mouse basal-like M6C cells; assay: Relative CCL5 mRNA in M6C cells treated with JQ1; type: cell-based; conditions: 300 nM JQ1, GAPDH loading control
Experimental: as §1, §2

tumors in nude mice = assay: Treatment of tumor-bearing nude mice with A23 and/or Maraviroc (tumor weight, growth, intravasation); type: in vivo, mouse; conditions: agent alone; nude mice treated for 21 days starting at day 3
Excerpt: B) The corresponding growth curves for the treated mice.

CCL7 = conditions: TAMs isolated from treated mice
Experimental: (§3) FIG. 20A-F: A) Final tumor weights shown for nude mice treated with the anti-Progranulin neutralizing antibody A23 alone or in combination with the CCR5 inhibitor Maraviroc for 21 days starting at day 3. B) The corresponding growth curves for the treated mice. Tumor volume is calculated as (π/6)*length2*width C) To measure the _rst step of metastasis we examine the relative number of tumor cells intravasating into the blood stream. This is calculated as the relative amount of human GAPDH compared to mouse Gapdh mRNA from cells isolated from blood after treatment. D) Tumor-associated macrophages were isolated from treated mice and qRT-PCR was performed to determine the relative amount of mRNA with Gapdh serving as the loading control; each set of four bars is data from the control, A23, Maraviroc, and A23+Maraviroc, respectively. E-F) Tumor cells were isolated from tumors stripped of mouse cells. RNA was collected and Relative CCL5 and Progranulin (GRN) were calculated with GAPDH as a loading control. *0.05>p>0.01 ** 0.01>p>0.001

CCL5 = conditions: tumor cells isolated from treated mice
Experimental: as §3

Molecule: Cc1sc2c(c1C)C(c1ccc(Cl)cc1)=N[C@@H](CC(=O)OC(C)(C)C)c1nnc(C)n1-2 [JQ1]
- CCL5 expression (human TNBC BM1 cells): significant reduction
- CCL5 expression [1]: significant reduction

Molecule: Maraviroc
- effectiveness of treatment in tumor-bearing mice (tumors in nude mice): not effective
- CCL7 in the tumor-associated macrophages (CCL7): more CCL7
- CCL5 secreted by tumor cells in response to therapy (CCL5): more CCL5
